Results: PubChem BioAssay AID248 (DTP/NCI, 2004)
Values joined by “and” are separate entries in the source; they are usually repeats but may differ in a detail not shown here. Identical values can stand only once. Inconclusive results and toxic doses are left out. Rule as the data show it: active = T/C of 150% or more; inactive = T/C below 125%.

System: L1210 leukemia ip in BDF1 mice, survival T/C
Test: NCI In Vivo Anticancer Drug Screen. Data for tumor model L1210 Leukemia (intraperitoneal) in B6D2F1 (BDF1) mice
Details: higher = longer survival
Summary of the method: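 Tumor was transplanted into mice, which were then dosed with test compound or vehicle alone. Survival was recorded for each group, and the treated figure was expressed relative to the control figure.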

[1] = endpoint: mean survival time, dose: 100.0 mg/kg/injection, schedule: Q01DX001 (ip), vehicle: saline
[2] = endpoint: mean survival time, dose: 200.0 mg/kg/injection, schedule: Q01DX001 (ip), vehicle: saline
[3] = endpoint: mean survival time, dose: 400.0 mg/kg/injection, schedule: Q01DX001 (ip), vehicle: saline

Measured: T/C

NC(=S)N/N=C\c1ncnc2ccccc12
inactive: endpoint: mean survival time, dose: 2.1 mg/kg/injection, schedule: Q03HX032 (ip), vehicle: saline with Tween-80 101 % of control | endpoint: mean survival time, dose: 3.2 mg/kg/injection, schedule: Q03HX032 (ip), vehicle: saline with Tween-80 107 % of control | endpoint: mean survival time, dose: 4.8 mg/kg/injection, schedule: Q03HX032 (ip), vehicle: saline with Tween-80 118 % of control | endpoint: mean survival time, dose: 6.25 mg/kg/injection, schedule: Q01DX009 (ip), vehicle: saline 115 % of control | endpoint: mean survival time, dose: 7.2 mg/kg/injection, schedule: Q03HX032 (ip), vehicle: saline with Tween-80 91 % of control | endpoint: mean survival time, dose: 50.0 mg/kg/injection, schedule: Q01DX001 (ip), vehicle: saline 100 % of control | endpoint: mean survival time, dose: 50.0 mg/kg/injection, schedule: Q01DX009 (ip), vehicle: saline 117 % of control | [1] 112 % of control | [2] 118 % of control | [3] 112 % of control

NC(Cc1cc(I)c(Oc2cc(I)c(O)c(I)c2)c(I)c1)C(=O)O (stereo unspecified)
inactive: endpoint: median survival time, dose: 0.63 mg/kg/injection, schedule: Q01DX009 (ip), vehicle: saline 98 % of control | endpoint: median survival time, dose: 2.5 mg/kg/injection, schedule: Q01DX009 (ip), vehicle: saline 92 % of control | endpoint: median survival time, dose: 10.0 mg/kg/injection, schedule: Q01DX009 (ip), vehicle: saline 88 % of control | endpoint: median survival time, dose: 40.0 mg/kg/injection, schedule: Q01DX009 (ip), vehicle: saline 93 % of control

O=C(O)COc1ccc(C2(c3ccc(OCC(=O)O)cc3)CC3CC2C2CCCC32)cc1 (stereo unspecified) (tested in a mixture with another compound)
inactive: endpoint: mean survival time, dose: 100.0 mg/kg/injection, schedule: Q04DX002 (ip), vehicle: saline with Tween-80 93 % of control | endpoint: mean survival time, dose: 200.0 mg/kg/injection, schedule: Q04DX002 (ip), vehicle: saline with Tween-80 93 % of control | endpoint: mean survival time, dose: 400.0 mg/kg/injection, schedule: Q04DX002 (ip), vehicle: saline with Tween-80 106 % of control

CCC(CO)ON=C(C)C (stereo unspecified)
inactive: [1] 104 % of control | [2] 104 % of control | [3] 102 % of control

COc1cc2c3c(c1)/C(=N\N)CCN3CCC2
inactive: endpoint: mean survival time, dose: 12.5 mg/kg/injection, schedule: Q01DX009 (ip), vehicle: saline with Tween-80 90 % of control | endpoint: mean survival time, dose: 25.0 mg/kg/injection, schedule: Q01DX009 (ip), vehicle: saline with Tween-80 94 % of control | endpoint: mean survival time, dose: 50.0 mg/kg/injection, schedule: Q01DX009 (ip), vehicle: saline with Tween-80 92 % of control | endpoint: mean survival time, dose: 100.0 mg/kg/injection, schedule: Q04DX003 (ip), vehicle: saline with Tween-80 92 % of control | endpoint: mean survival time, dose: 200.0 mg/kg/injection, schedule: Q01DX009 (ip), vehicle: saline with Tween-80 99 % of control | endpoint: mean survival time, dose: 200.0 mg/kg/injection, schedule: Q04DX003 (ip), vehicle: saline with Tween-80 103 % of control

c1ccc(C2OCCOC2c2ccccc2)cc1 (stereo unspecified)
inactive: endpoint: mean survival time, dose: 100.0 mg/kg/injection, schedule: Q01DX001 (ip), vehicle: carboxymethylcellulose (CMC) 101 % of control | endpoint: mean survival time, dose: 200.0 mg/kg/injection, schedule: Q01DX001 (ip), vehicle: carboxymethylcellulose (CMC) 103 % of control | endpoint: mean survival time, dose: 400.0 mg/kg/injection, schedule: Q01DX001 (ip), vehicle: carboxymethylcellulose (CMC) 101 % of control

CC(=O)OCC(=O)[C@@]1(O)[C@H](C)C[C@H]2[C@@H]3C=C(C)C4=Cc5c(cnn5-c5ccc(F)cc5)C[C@]4(C)[C@H]3[C@@H](O)C[C@@]21C
inactive: endpoint: mean survival time, dose: 0.62 mg/kg/injection, schedule: Q01DX015 (sc), vehicle: steriod suspending solution 120 % of control | endpoint: mean survival time, dose: 1.25 mg/kg/injection, schedule: Q01DX015 (sc), vehicle: steriod suspending solution 117 % of control | endpoint: mean survival time, dose: 2.5 mg/kg/injection, schedule: Q01DX015 (sc), vehicle: steriod suspending solution 102 % of control | endpoint: mean survival time, dose: 5.0 mg/kg/injection, schedule: Q01DX015 (sc), vehicle: steriod suspending solution 117 % of control and 123 % of control | endpoint: mean survival time, dose: 6.25 mg/kg/injection, schedule: Q01DX009 (sc), vehicle: steriod suspending solution 100 % of control | endpoint: mean survival time, dose: 10.0 mg/kg/injection, schedule: Q01DX015 (sc), vehicle: steriod suspending solution 111 % of control | endpoint: mean survival time, dose: 20.0 mg/kg/injection, schedule: Q01DX015 (sc), vehicle: steriod suspending solution 103 % of control | endpoint: mean survival time, dose: 40.0 mg/kg/injection, schedule: Q01DX015 (sc), vehicle: steriod suspending solution 101 % of control | endpoint: mean survival time, dose: 50.0 mg/kg/injection, schedule: Q04DX003 (sc), vehicle: steriod suspending solution 110 % of control | endpoint: mean survival time, dose: 100.0 mg/kg/injection, schedule: Q01DX001 (ip), vehicle: steriod suspending solution 98 % of control | endpoint: mean survival time, dose: 100.0 mg/kg/injection, schedule: Q04DX003 (sc), vehicle: steriod suspending solution 108 % of control | endpoint: mean survival time, dose: 160.0 mg/kg/injection, schedule: Q01DX015 (sc), vehicle: steriod suspending solution 91 % of control | endpoint: mean survival time, dose: 200.0 mg/kg/injection, schedule: Q01DX001 (ip), vehicle: steriod suspending solution 91 % of control | endpoint: mean survival time, dose: 200.0 mg/kg/injection, schedule: Q04DX003 (sc), vehicle: steriod suspending solution 103 % of control

CN1CCN(c2ccc([N+](=O)[O-])c3no[n+]([O-])c23)CC1
inactive: endpoint: mean survival time, dose: 0.2 mg/kg/injection, schedule: Q03HX024 (ip), vehicle: saline with Tween-80 104 % of control | endpoint: mean survival time, dose: 0.39 mg/kg/injection, schedule: Q03HX024 (ip), vehicle: saline with Tween-80 100 % of control | endpoint: mean survival time, dose: 0.78 mg/kg/injection, schedule: Q03HX024 (ip), vehicle: saline with Tween-80 111 % of control | endpoint: mean survival time, dose: 1.56 mg/kg/injection, schedule: Q03HX024 (ip), vehicle: saline with Tween-80 105 % of control | endpoint: mean survival time, dose: 3.13 mg/kg/injection, schedule: Q03HX024 (ip), vehicle: saline with Tween-80 109 % of control | endpoint: mean survival time, dose: 7.5 mg/kg/injection, schedule: Q01DX009 (ip), vehicle: saline 108 % of control and 115 % of control | endpoint: mean survival time, dose: 10.0 mg/kg/injection, schedule: Q01DX009 (ip), vehicle: saline 118 % of control | endpoint: mean survival time, dose: 15.0 mg/kg/injection, schedule: Q01DX009 (ip), vehicle: saline 115 % of control and 124 % of control | endpoint: mean survival time, dose: 25.0 mg/kg/injection, schedule: Q01DX009 (ip), vehicle: saline 117 % of control | endpoint: mean survival time, dose: 25.0 mg/kg/injection, schedule: Q04DX002 (ip), vehicle: Klucel (hydroxypropylcellulose) (HPC) 104 % of control | endpoint: mean survival time, dose: 50.0 mg/kg/injection, schedule: Q04DX002 (ip), vehicle: Klucel (hydroxypropylcellulose) (HPC) 104 % of control | endpoint: mean survival time, dose: 100.0 mg/kg/injection, schedule: Q04DX002 (ip), vehicle: Klucel (hydroxypropylcellulose) (HPC) 113 % of control

CN(C)N=Nc1ccc(C(=O)N/N=C/c2ccc(Cl)cc2)cc1
inactive: endpoint: mean survival time, dose: 50.0 mg/kg/injection, schedule: Q04DX003 (ip), vehicle: Klucel (hydroxypropylcellulose) (HPC) 99 % of control | endpoint: mean survival time, dose: 100.0 mg/kg/injection, schedule: Q04DX003 (ip), vehicle: Klucel (hydroxypropylcellulose) (HPC) 97 % of control | endpoint: mean survival time, dose: 200.0 mg/kg/injection, schedule: Q04DX003 (ip), vehicle: Klucel (hydroxypropylcellulose) (HPC) 103 % of control

CCC[P+](c1ccccc1)(c1ccccc1)c1ccccc1
inactive: endpoint: mean survival time, dose: 3.13 mg/kg/injection, schedule: Q01DX009 (ip), vehicle: saline with Tween-80 123 % of control | endpoint: mean survival time, dose: 3.13 mg/kg/injection, schedule: Q04DX003 (ip), vehicle: saline with Tween-80 102 % of control | endpoint: mean survival time, dose: 5.56 mg/kg/injection, schedule: Q01DX009 (ip), vehicle: saline with Tween-80 118 % of control | endpoint: mean survival time, dose: 6.25 mg/kg/injection, schedule: Q01DX009 (ip), vehicle: saline with Tween-80 118 % of control | endpoint: mean survival time, dose: 6.25 mg/kg/injection, schedule: Q04DX003 (ip), vehicle: saline with Tween-80 96 % of control | endpoint: mean survival time, dose: 8.33 mg/kg/injection, schedule: Q01DX009 (ip), vehicle: saline with Tween-80 121 % of control | endpoint: mean survival time, dose: 9.5 mg/kg/injection, schedule: Q01DX001 (ip), vehicle: other 111 % of control | endpoint: mean survival time, dose: 12.5 mg/kg/injection, schedule: Q01DX001 (ip), vehicle: carboxymethylcellulose (CMC) 101 % of control | endpoint: mean survival time, dose: 12.5 mg/kg/injection, schedule: Q04DX003 (ip), vehicle: saline with Tween-80 105 % of control | endpoint: mean survival time, dose: 12.5 mg/kg/injection, schedule: Q04DX003 (ip), vehicle: saline 100 % of control | endpoint: mean survival time, dose: 18.75 mg/kg/injection, schedule: Q01DX009 (ip), vehicle: saline with Tween-80 120 % of control | endpoint: mean survival time, dose: 19.0 mg/kg/injection, schedule: Q01DX001 (ip), vehicle: other 102 % of control | endpoint: mean survival time, dose: 25.0 mg/kg/injection, schedule: Q01DX001 (ip), vehicle: carboxymethylcellulose (CMC) 104 % of control | endpoint: mean survival time, dose: 25.0 mg/kg/injection, schedule: Q04DX003 (ip), vehicle: saline with Tween-80 105 % of control | endpoint: mean survival time, dose: 25.0 mg/kg/injection, schedule: Q04DX003 (ip), vehicle: saline 108 % of control | endpoint: mean survival time, dose: 38.0 mg/kg/injection, schedule: Q01DX001 (ip), vehicle: other 107 % of control | endpoint: mean survival time, dose: 50.0 mg/kg/injection, schedule: Q01DX001 (ip), vehicle: carboxymethylcellulose (CMC) 99 % of control | endpoint: mean survival time, dose: 50.0 mg/kg/injection, schedule: Q04DX003 (ip), vehicle: saline with Tween-80 105 % of control
